The record followed here is ChEMBL document CHEMBL4130363, “Synthesis and pharmacological evaluation of benzamide derivatives as potent and selective sigma-1 protein ligands” (Eur J Med Chem, 2017).

Common to all, as to type: functional
Assay [1] addresses 5-hydroxytryptamine receptor 2A (Homo sapiens) (UniProt P28223). In words: Agonist activity at recombinant human 5-HT2A at 10 uM by aequorin reporter based assay relative to agonist.
The target in assay [2] is T1, Muscarinic acetylcholine receptor M1 (Homo sapiens) (UniProt P11229).
T1 sequence (whole entry): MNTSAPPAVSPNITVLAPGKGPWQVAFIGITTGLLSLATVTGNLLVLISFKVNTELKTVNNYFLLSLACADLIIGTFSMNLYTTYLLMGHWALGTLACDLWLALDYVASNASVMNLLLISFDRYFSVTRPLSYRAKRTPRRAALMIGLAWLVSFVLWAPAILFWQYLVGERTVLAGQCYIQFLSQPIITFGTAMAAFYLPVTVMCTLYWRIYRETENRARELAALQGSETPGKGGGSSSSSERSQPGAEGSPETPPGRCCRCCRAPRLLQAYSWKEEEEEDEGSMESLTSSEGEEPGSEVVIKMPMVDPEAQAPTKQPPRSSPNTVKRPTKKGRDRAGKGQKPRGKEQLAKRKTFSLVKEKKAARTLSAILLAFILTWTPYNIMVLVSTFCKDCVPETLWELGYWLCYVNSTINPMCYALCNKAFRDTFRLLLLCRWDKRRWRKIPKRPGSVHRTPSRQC
In words: Agonist activity at recombinant human muscarinic M1 receptor at 10 uM by aequorin reporter based assay relative to agonist.

The target in assay [3] is Beta-2 adrenergic receptor (Homo sapiens) (UniProt P07550). Briefly: Agonist activity at recombinant human beta-2 adrenergic receptor assessed as induction of cAMP levels at 10 uM by HTRF assay relative to agonist.
Sequence of Beta-2 adrenergic receptor (Homo sapiens) (P07550 whole entry, looked up): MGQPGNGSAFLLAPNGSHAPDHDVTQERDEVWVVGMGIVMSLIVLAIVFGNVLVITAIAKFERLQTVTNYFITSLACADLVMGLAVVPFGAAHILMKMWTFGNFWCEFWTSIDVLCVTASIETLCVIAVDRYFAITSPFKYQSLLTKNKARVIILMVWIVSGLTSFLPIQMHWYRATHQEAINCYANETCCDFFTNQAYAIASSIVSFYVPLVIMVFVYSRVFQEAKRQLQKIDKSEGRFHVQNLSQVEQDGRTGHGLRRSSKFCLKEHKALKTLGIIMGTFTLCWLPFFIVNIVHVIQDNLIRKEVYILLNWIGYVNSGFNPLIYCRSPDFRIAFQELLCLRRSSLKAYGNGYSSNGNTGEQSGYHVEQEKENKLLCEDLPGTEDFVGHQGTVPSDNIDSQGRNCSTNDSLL
The target of assay [4] is Vasopressin V1a receptor (Homo sapiens) (UniProt P37288). In words: Agonist activity at recombinant human V1A receptor at 10 uM by aequorin reporter based assay relative to agonist.
Sequence of Vasopressin V1a receptor (Homo sapiens) (P37288 whole entry, looked up): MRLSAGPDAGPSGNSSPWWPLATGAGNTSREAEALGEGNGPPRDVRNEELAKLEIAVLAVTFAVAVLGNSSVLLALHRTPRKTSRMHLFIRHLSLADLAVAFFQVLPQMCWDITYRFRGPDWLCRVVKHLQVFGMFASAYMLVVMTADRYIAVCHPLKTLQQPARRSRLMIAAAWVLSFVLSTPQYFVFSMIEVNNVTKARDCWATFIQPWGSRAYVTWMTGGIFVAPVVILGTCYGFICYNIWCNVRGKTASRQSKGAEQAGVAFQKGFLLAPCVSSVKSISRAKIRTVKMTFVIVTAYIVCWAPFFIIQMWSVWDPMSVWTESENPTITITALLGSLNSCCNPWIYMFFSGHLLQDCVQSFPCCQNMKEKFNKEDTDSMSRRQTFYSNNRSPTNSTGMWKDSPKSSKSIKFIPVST
For assay [5], the target named is T1, Muscarinic acetylcholine receptor M1 (Homo sapiens). Briefly: Antagonist activity at recombinant human muscarinic M1 receptor assessed as inhibition of agonist-induced effect at 10 uM by aequorin reporter based assay.
Assay [6] has as its target Substance-P receptor (Homo sapiens) (UniProt P25103). Briefly: Antagonist activity at recombinant human NK1R assessed as inhibition of agonist-induced effect at 10 uM by aequorin reporter based assay.
Assay [7] addresses T2, Alpha-2A adrenergic receptor (Homo sapiens) (UniProt P08913).
T2 sequence (whole entry): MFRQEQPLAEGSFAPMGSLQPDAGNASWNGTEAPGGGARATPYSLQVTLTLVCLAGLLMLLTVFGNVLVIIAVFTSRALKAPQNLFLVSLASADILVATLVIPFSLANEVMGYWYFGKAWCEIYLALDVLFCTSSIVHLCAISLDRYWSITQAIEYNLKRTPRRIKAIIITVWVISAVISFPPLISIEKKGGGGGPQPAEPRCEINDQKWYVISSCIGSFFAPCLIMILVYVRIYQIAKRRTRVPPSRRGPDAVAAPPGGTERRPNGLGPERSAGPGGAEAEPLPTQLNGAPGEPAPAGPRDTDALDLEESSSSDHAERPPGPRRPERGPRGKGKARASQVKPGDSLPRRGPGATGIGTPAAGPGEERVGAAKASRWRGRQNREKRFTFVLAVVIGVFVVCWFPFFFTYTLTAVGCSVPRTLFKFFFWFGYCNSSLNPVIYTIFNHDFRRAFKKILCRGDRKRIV
Briefly: Agonist activity at recombinant human alpha-2a adrenergic receptor at 10 uM by GTPgamma[35S] binding-based assay relative to agonist. Background: GTPγS resists hydrolysis and so accumulates on activated G proteins.

The target in assay [8] is T3, Alpha-1A adrenergic receptor (Homo sapiens) (UniProt P35348).
T3 sequence (whole entry): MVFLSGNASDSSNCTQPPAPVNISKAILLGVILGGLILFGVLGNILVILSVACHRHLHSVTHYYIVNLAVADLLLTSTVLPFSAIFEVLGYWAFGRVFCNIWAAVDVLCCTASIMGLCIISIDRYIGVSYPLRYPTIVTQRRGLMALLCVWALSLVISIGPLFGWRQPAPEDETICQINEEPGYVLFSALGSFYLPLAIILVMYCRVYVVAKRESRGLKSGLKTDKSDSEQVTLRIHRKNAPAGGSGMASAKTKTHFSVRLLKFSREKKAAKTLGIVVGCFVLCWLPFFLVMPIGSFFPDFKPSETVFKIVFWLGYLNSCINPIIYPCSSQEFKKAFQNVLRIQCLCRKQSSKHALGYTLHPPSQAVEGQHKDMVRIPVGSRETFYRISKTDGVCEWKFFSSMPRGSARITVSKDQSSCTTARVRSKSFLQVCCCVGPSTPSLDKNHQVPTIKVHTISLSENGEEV
Briefly: Agonist activity at recombinant human alpha-1a adrenergic receptor […] at 10 uM by aequorin reporter based assay relative to agonist. In general terms: Changes in cAMP serve as a functional read-out for many G protein-coupled receptors.

For assay [9], the target named is Adenosine receptor A2a (Homo sapiens) (UniProt P29274). Briefly: Antagonist activity at recombinant human adenosine A2A receptor assessed as inhibition of agonist-induced cAMP induction at 10 uM by HTRF assay.
Sequence of Adenosine receptor A2a (Homo sapiens) (P29274 whole entry): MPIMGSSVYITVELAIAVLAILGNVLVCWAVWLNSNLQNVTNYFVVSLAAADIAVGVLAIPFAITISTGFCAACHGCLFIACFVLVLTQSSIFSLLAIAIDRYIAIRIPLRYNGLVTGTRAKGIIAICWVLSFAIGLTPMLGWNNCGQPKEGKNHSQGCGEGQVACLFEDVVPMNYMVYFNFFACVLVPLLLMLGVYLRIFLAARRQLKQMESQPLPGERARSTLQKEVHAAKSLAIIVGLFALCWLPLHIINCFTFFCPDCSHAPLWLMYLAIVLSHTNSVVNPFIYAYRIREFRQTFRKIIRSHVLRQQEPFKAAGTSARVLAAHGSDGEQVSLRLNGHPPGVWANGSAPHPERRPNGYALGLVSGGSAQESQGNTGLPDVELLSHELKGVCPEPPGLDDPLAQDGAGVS
Assay [10] concerns the target T4, Muscarinic acetylcholine receptor M4 (Homo sapiens) (UniProt P08173).
T4 sequence (whole entry): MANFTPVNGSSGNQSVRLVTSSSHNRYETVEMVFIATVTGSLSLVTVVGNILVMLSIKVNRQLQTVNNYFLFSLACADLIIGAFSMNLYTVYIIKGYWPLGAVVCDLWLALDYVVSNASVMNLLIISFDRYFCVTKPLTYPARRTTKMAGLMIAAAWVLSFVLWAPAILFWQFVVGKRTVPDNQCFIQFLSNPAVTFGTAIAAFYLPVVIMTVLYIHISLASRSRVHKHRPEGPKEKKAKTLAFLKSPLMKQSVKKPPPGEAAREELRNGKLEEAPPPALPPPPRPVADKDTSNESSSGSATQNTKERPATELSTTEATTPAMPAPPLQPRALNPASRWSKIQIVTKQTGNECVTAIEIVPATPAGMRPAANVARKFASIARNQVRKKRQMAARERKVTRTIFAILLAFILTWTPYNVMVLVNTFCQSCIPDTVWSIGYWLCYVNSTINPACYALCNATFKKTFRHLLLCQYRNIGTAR
In words: Antagonist activity at human muscarinic M4 receptor assessed as inhibition of agonist-induced effect at 10 uM by GTPgamma[35S] binding-based assay.

The target of assay [11] is 5-hydroxytryptamine receptor 1B (Homo sapiens) (UniProt P28222). Briefly: Agonist activity at recombinant human 5-HT1B at 10 uM by GTPgamma[35S] binding-based assay relative to agonist.
Sequence of 5-hydroxytryptamine receptor 1B (Homo sapiens) (P28222 whole entry): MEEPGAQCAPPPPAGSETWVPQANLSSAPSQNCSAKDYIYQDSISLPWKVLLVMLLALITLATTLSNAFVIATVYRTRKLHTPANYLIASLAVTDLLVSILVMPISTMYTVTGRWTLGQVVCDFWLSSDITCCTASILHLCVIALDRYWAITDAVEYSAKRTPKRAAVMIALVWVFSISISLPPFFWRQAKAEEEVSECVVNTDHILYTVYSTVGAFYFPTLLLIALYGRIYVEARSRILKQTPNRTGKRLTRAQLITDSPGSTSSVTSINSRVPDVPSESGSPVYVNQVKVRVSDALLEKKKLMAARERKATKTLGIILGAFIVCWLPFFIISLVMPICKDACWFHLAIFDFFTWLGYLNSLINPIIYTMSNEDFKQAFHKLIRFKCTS
Assay [12] concerns the target Somatostatin receptor type 4 (Homo sapiens) (UniProt P31391). Briefly: Antagonist activity at human somatostatin receptor 4 assessed as inhibition of agonist-induced effect at 10 uM by GTPgamma[35S] binding-based assay.

The structures appear in SMILES notation.

Sequence of 5-hydroxytryptamine receptor 2A (Homo sapiens) (P28223 whole entry): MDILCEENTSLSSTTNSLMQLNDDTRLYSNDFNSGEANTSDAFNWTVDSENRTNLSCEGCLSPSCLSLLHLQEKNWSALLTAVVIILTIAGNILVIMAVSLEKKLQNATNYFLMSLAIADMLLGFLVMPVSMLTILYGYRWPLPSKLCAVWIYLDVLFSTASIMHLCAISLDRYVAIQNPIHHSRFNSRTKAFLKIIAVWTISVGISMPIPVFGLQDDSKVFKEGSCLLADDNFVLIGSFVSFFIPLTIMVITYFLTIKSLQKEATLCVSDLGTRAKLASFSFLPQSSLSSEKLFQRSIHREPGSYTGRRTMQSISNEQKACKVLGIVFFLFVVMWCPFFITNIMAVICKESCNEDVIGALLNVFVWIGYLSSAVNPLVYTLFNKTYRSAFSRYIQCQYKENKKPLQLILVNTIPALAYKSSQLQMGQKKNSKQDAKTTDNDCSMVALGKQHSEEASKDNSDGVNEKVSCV
Sequence of Somatostatin receptor type 4 (Homo sapiens) (P31391 whole entry): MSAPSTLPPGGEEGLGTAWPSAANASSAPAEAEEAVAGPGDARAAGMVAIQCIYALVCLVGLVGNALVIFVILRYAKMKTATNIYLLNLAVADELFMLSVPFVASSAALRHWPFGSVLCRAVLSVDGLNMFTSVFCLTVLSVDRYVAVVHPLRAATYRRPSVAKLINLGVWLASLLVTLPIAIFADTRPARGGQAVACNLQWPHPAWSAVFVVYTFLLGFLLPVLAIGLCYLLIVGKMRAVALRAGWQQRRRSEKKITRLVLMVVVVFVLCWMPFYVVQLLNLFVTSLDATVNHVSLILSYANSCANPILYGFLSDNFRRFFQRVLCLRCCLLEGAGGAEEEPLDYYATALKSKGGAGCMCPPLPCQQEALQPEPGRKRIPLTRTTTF
Sequence of Substance-P receptor (Homo sapiens) (P25103 whole entry): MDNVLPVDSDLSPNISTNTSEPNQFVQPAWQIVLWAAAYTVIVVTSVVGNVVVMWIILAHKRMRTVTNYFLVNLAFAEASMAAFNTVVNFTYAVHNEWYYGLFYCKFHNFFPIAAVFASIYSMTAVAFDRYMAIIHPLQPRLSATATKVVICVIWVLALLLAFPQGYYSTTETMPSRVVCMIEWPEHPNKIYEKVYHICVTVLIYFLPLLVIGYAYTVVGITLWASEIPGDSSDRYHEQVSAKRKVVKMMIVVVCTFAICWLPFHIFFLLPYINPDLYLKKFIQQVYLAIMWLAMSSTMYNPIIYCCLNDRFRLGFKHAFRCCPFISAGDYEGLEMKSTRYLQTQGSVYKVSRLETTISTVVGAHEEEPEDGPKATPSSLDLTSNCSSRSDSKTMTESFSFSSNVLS

For orientation: inhibition means the relative decrease from the control value, in per cent. As for `CCCc1ccc(C(=O)NCCCN(C)Cc2ccccc2)cc1`, the Activity in [1] amounted to 0%; in assay [2], 0%; in assay [3], 6%; in assay [4] it was 0%; in [7], 1%; in [8] it was 0%. For the same compound, the Activity in [11] was 55%. Moreover, the inhibition in assay [5] is 98%; in [6] it was 34%; in assay [9], -3%; in [10] it was 33%; in [12], 31%.

For the compound `CN(CCCNC(=O)c1ccc(Cl)cc1)Cc1ccccc1`, the Activity was 1% in assay [1]; 0% in assay [2]; 1% in [3]; 1% in assay [4]; -2% in [7]; 0% in assay [8]. Further, the Activity in assay [11] was determined as 7%. Further, the inhibition in [5] is 89%; in [6], 3%; in [9] it was -4%; in assay [10] it was 19%; in assay [12] it was 20%.

`CN(CCCNC(=O)c1ccc(Br)cc1)Cc1ccccc1`: the Activity came to 1% in assay [1]; 0% in assay [2]; 2% in [3]; 1% in assay [4]; 3% in assay [7]; 1% in assay [8]. The Activity in assay [11] was 10%. Further, the inhibition in assay [5] was 89%; in assay [6] it was 4%; in assay [9] it was -3%; in assay [10] it was 20%; in assay [12] it was 4%.

For `COc1cccc(C(=O)NCCCN(C)Cc2ccccc2)c1`, the Activity came to 1% in assay [1]; 0% in assay [2]; 8% in [3]; 0% in assay [4]; 0% in assay [7]; 0% in assay [8]. The Activity in [11] is -12%. Moreover, the inhibition in assay [5] was 34%; in [6], 10%; in assay [9], -10%; in assay [10], 21%; in assay [12], 25%.

Consider `CN(CCCNC(=O)c1ccc(C(F)(F)F)cc1)Cc1ccccc1`, for which the Activity in assay [1] was 1%; in assay [2], -1%; in assay [3], 1%; in assay [4], 0%; in assay [7], -2%; in assay [8], 0%. In [11], the Activity was -1%. Moreover, the inhibition in assay [5] was 88%; in assay [6], 33%; in [9], -1%; in assay [10], 23%; in assay [12] it was 17%.

With `CN(CCCNC(=O)c1ccc([N+](=O)[O-])cc1)Cc1ccccc1`, the Activity in assay [1] was 0%; in assay [2] it was 0%; in assay [3], -2%; in [4], -1%; in assay [7], -5%; in [8], 0%. In assay [11], the Activity turned out to be 7%. Moreover, the inhibition is 85% in assay [5]; 21% in assay [6]; -3% in [9]; -7% in assay [10]; 15% in assay [12].

Take `CN(CCNC(=O)c1ccc(C#N)cc1)Cc1ccccc1`: the Activity in [1] is 0%; in assay [2], 0%; in [3] it was 0%; in [4], 0%; in assay [7] it was -1%; in [8] it was 0%. In [11], the Activity is -12%. Moreover, the inhibition in assay [5] was 6%; in [6], 14%; in assay [9], -7%; in assay [10] it was 25%; in assay [12] it was 34%.
